Earlier results in patent US8268828B2, “Inhibitors of the chemokine receptor CxCR3” (Sanofi, priority 2008, dated 2012).

What was measured:
[1] = system: metastatic breast cancer
[2] = system: Collagen Induced Arthritis (CIA); details: CIA mice

SMILES	reduction of the number of metastases ([1]; mouse model of metastatic breast cancer) [%]	direct effect on proliferation ([1]; tumor cells)	classical picture of inflammation (swollen red joints in limbs) [2]	leukocytic infiltration of joints ([2]; histologic evaluation)
CCOc1ccc(-n2c([C@@H](C)N(Cc3cccnc3)C(=O)Cc3ccc(OC(F)(F)F)cc3)nc3ncccc3c2=O)cc1 [AMG-487]	60	no direct effect		
Cc1ccc(-c2ccc3c(c2)C=C(C(=O)Nc2ccc(C[N+](C)(C)C4CCOCC4)cc2)CCC3)cc1.[Cl-] [TAK-779]			ablated	blocked
